Experimental data: US20260144769A1, “4-PHENYLBUTYRATE RESTORED GABA UPTAKE AND REDUCED SEIZURES IN SLC6A1 VARIANT-MEDIATED DISORDERS” (Vanderbilt University, priority 2022, published 2026)

Experiments:
Format in all cases: cell-based
[1] = biological target: T1, wildtype GAT-1 (Rattus norvegicus, UniProt P23978); experiment: 3H GABA uptake, corrected iPSC astrocytes transfected with GAT-1^YFP cDNA; settings: corrected astrocytes transfected with wt; 2 mM PBA, 24 hrs
T1 construct: The coding region of rGAT-1 was inserted into pEYFP-C1 (Clontech, Palo Alto, CA); expressed in transfected cells; host or cells: HEK293T cells (A1); astrocytes from corrected human iPSCs (A21)
Procedure: (§1) Live images of human neural progenitor cells (NPCs), astrocytes and GABAergic inhibitory neurons differentiated from the human induced pluripotent stem cells (iPSCs) on the day of experiment. […] The DMSO treated corrected or patient cells was taken as 1. […] GABA flux was measured after 30 min transport at room temperature. The influx of GABA, expressed in pmol/μg protein/min, was averaged from duplicates for each condition and for each transfection. The average counting was DMSO treated condition taken as 1. In FIG. 5B, FIG. 5D and FIG. 5F, 966 stands for CI-966 (50 μM) and 711 stands for NNC-711 (35 μM) that was applied 30 min to the astrocytes transfected with the wildtype GAT-1^YFP before preincubation and removed during preincubation. In FIGS. 5B and D, ***p<0.001 vs. corrected DMSO treated. § § <0.01, § § § p<0.001 vs. patient DMSO treated. […] In FIGS. 5B-E, n=4-8 batches of cells. In FIG. 5F, n=4-5 different transfections). Unpaired t test was used for FIG. 5C and FIG. 5E. One-way analysis of variance followed by a Dunnett post hoc multiple comparison test was used in FIG. 5B, FIG. 5D and FIG. 5F. Values were expressed as mean±S.E.M.).
(§2) The plasmid cDNA encoding enhanced yellow fluorescent protein (EYFP)-tagged rat GAT-1 has been previously described. The coding region of rGAT-1 was inserted into pEYFP-C1 (Clontech, Palo Alto, CA). QuikChange Site-directed Mutagenesis kit was utilized to introduce the GAT-1 variants into a wildtype GAT-1 plasmid. The product was then amplified via polymerase chain reaction, transformed using DH5a competent cells, and plated. A clone was chosen and grown overnight. All the GAT-1 variants were confirmed by DNA sequencing. Both the wildtype and the variant cDNAs were prepared with Qiagen Maxiprep kit.
(§3) Astrocytes were differentiated starting from day 5 of NPC passage 1 with the astrocyte culture medium from Sciencell (catalog 1801) following the protocol as previously described. The cell culture medium was refreshed every other day and the cells were passaged at ˜70% confluency. About 1.5×10^5 cells were seeded in each 35 mm dish or each well in 6-well plate when passaging. The differentiation was continuous until the day 30 and all the astrocytes used in experiments in this study were at day 30 after differentiation.
(§4) Briefly, cells were cultured in […] dishes for 3 days before the GABA uptake experiment in DMEM with 10% fetal bovine serum and 1% penicillin/streptomycin. The cells were then transfected with equal amounts of the wildtype or the mutant GAT-1 cDNAs (1 μg) for each condition at 24 hrs or 48 hrs after plating. GABA uptake assay was carried out 48 hrs after transfection. The cells were incubated with preincubation solution for 15 min and then incubated with preincubation solution containing 1 μci/mL 3H GABA and 10 μM unlabeled GABA for 30 min at room temperature. After washing, the cells were lysed with 0.25 N NaOH for 1 hr. Glacial acetic acid was added, and lysates were then determined on a liquid scintillator with QuantaSmart. The flux of GABA (pmol/μg/min) was averaged with at least triplets for each condition at each transfection. The average counting was taken as n=1. The untransfected condition was taken as a baseline that was subtracted from both the wildtype and the mutant conditions. The pmol/μg/min in the mutant was then normalized to the wildtype from each experiment, which was arbitrarily taken as 100%. The protocols for GABA reuptake assay in cultured mouse astrocytes, neuron or iPSC derived cells were modified from the GABA uptake protocol on HEK 293T cells. GAT-1 inhibitors CL-966 and NNC-711 were applied each time to make sure the radioactive counts were specific.
(§5) The working solution was stored at 4° C.
(§6) Wildtype or the mutant GAT-1^YFP were transfected (1 μg cDNAs per 35 mm^2 dishes) in the astrocytes derived from the corrected iPSCs for 48 hrs. […]

[2] = biological target: T2, GAT-1 V125M (Rattus norvegicus, UniProt P23978, V125M); experiment: as above; settings: 2 mM PBA, 24 hrs
T2 construct: The coding region of rGAT-1 was inserted into pEYFP-C1 (Clontech, Palo Alto, CA); expressed in transfected cells; host or cells: HEK293T cells (A3); astrocytes from corrected human iPSCs (A23)
Procedure: as §1, §2, §3, §4, §5, §6

[3] = biological target: T3, GAT-1 A288V (Rattus norvegicus, UniProt P23978, A288V); experiment: as above; settings: 2 mM PBA, 24 hrs
T3 construct: The coding region of rGAT-1 was inserted into pEYFP-C1 (Clontech, Palo Alto, CA); expressed in transfected cells; host or cells: HEK293T cells (A4); astrocytes from corrected human iPSCs (A24)
Procedure: as §1, §2, §3, §4, §5, §6

[4] = biological target: GAT-1 L460R (Rattus norvegicus, UniProt P23978, L460R); experiment: 3H GABA uptake, HEK293T, mutant cDNA alone ("homozygous"); parameters: The coding region of rGAT-1 was inserted into pEYFP-C1 (Clontech, Palo Alto, CA); expressed in transfected cells; host or cells: HEK293T cells; settings: PBA 2 mM, 24 hrs
Procedure: GABA uptake activity was measured by the high-throughput 3H radio-labeling GABA uptake on a liquid scintillator with QuantaSmart. […] HEK293T cells were transfected with the wildtype or the mutant GAT-1^YFP cDNAs alone for 48 hr. […] HEK293T cells were transfected with the wildtype GAT-1^YFP alone or in mixture of the wildtype or the mutant cDNAs for 48 hr. In the mixed condition, the ratio of the wildtype GAT-1 with pcDNA or the mutant cDNAs are 1:1 with the total cDNA amount of 0.5 μg. […] Both wt and the mutant were normalized to its own DMSO treated conditions. 966 stands for the wildtype treated with CI-966 (50 μM) while 711 stands for NNC-711 (35 μM). (N=4-7 different transfections. In FIG. 4A and FIG. 4B, *P<0.05, **P<0.01, ***p<0.001 vs. wt 0. In FIG. C and FIG. 4D, *P<0.05, **P<0.01, ***p<0.001 vs. its own DMSO treated. In FIG. 4C, ns stands for no significance. One-way analysis of variance (ANOVA) and Newman-Keuls test. Values were expressed as mean±S.E.M.
The plasmid cDNA encoding enhanced yellow fluorescent protein (EYFP)-tagged rat GAT-1 has been previously described. […]
Briefly, cells were cultured in […] dishes for 3 days before the GABA uptake experiment in DMEM with 10% fetal bovine serum and 1% penicillin/streptomycin. […] Glacial acetic acid was added, and lysates were then determined on a liquid scintillator with QuantaSmart. […]

O=C(O)CCCc1ccccc1 [PBA, 4-phenylbutyric acid]
GABA uptake normalized to its DMSO treated [1]: 1.188±0.075 | GABA uptake normalized to its DMSO treated [2]: 1.285±0.018 | GABA uptake normalized to its DMSO treated [3]: 1.204±0.031 | GABA uptake normalized to its own DMSO treated condition [4]: 1.14±0.07
